Measurements taken from patent publication US9469642B2, “Purinone compounds as kinase inhibitors” (Pharmacyclics LLC, priority 2012, dated 2016).

Tests used:
Assay type in all cases: biochemical
LCK = LCK (Homo sapiens, UniProt P06239); assay: Kinase panel inhibition, LCK (one of the methods of Example 76a, 76b, 76c)
Description: (§1) Btk kinase activity is determined using a time-resolved fluorescence resonance energy transfer (TR-FRET) methodology. Measurements are performed in a reaction volume of 50 μL using 96-well assay plates. Kinase enzyme, inhibitor, ATP (at the Km for the kinase), and 1 peptide substrate (Biotin-AVLESEEELYSSARQ-NH2) are incubated in a reaction buffer composed of 20 mM Tris, 50 mM NaCl, MgCl2 (5-25 mM depending on the kinase), MnCl2 (0-10 mM), 1 mM DTT, 0.1 mM EDTA, 0.01% bovine serum albumin, 0.005% Tween-20, and 10% DMSO at pH 7.4 for one hour. The reaction is quenched by the addition of 1.2 equivalents of EDTA (relative to divalent cation) in 25 μL of 1× Lance buffer (Perkin-Elmer). Streptavidin-APC (Perkin-Elmer) and Eu-labeled p-Tyr100 antibody (Perkin-Elmer) in 1× Lance buffer are added in a 25 μL volume to give final concentrations of 100 nM and 2.5 nM, respectively, and the mixture is allowed to incubate for one hour. The TR-FRET signal is measured on a multimode plate reader with an excitation wavelength (λEx) of 330 nm and detection wavelengths (λEm) of 615 and 665 nm. Activity is determined by the ratio of the fluorescence at 665 nm to that at 615 nm. For each compound, enzyme activity is measured at various concentrations of compound. Negative control reactions are performed in the absence of inhibitor in replicates of six, and two no-enzyme controls are used to determine baseline fluorescence levels. Inhibition constants, Ki(app), were obtained using the program BatchKi (Kuzmic et al. (2000), Anal. Biochem. 286:45-50). IC50s are obtained according to the equation: IC50=[…]+[E]total/2;
(§2) For all kinases, [ATP]=Km^ATP, [Btk]total=0.5 nM and [Lck]total=6 nM.
(§3) Kinase activity is measured in vitro using electrophoretic mobility shift assay. The kinase reactions are assembled in a total volume of 25 μL in 384 well plates. The reactions comprise: BTK enzyme (1 nM, N-terminal His6-tagged, recombinant, full-length, human BTK purified from baculovirus Sf21 insect cell system), inhibitor, ATP (16 μM, the apparent Km for the kinase), fluorescently labeled peptide substrate (1 μM, FAM-GEEPLYWSFPAKKK-NH2) in a reaction buffer composed of 100 mM HEPES, pH7.5, 5 mM MgCl2 1 mM DTT, 0.1% bovine serum albumin, 0.01% Triton X-100, and 1% DMSO. The reaction is incubated for one hour and is quenched by the addition of 45 μL of termination buffer (100 mM HEPES, pH7.5, 0.01% Triton X-100, 30 mM EDTA). The terminated reactions are analyzed using 12 channel LabChip® 3000 microfluidic detection instrument (Caliper Life Sciences). The enzymatic phosphorylation of the peptide results in a change in net charge, enabling electrophoretic separation of product from substrate peptide. As substrate and product peptides are separated, two peaks of fluorescence are observed. Change in the relative fluorescence intensity of the substrate and product peaks is the parameter measured, reflecting enzyme activity. In the presence of an inhibitor, the ratio between product and substrate is altered:the signal of the product decreases, while the signal of the substrate increases.
(§4) Activity in each sample is determined as the product to sum ratio (PSR):P/(S+P), where P is the peak height of the product peptide and S is the peak height of the substrate peptide. For each compound, enzyme activity is measured at various concentrations (12 concentrations of compound spaced by 3× dilution intervals). Negative control samples (0%-inhibition in the absence of inhibitor) and positive control samples (100%-inhibition, in the presence of 20 mM EDTA) are assembled in replicates of four and are used to calculate %-inhibition values for each inhibitor at each concentration. Percent inhibition (Pinh) is determined using following equation: […]

BTK = target: T1, BTK (Homo sapiens, UniProt Q06187); assay: Btk in vitro inhibitory activity (kinase assay by one of Methods A, B or C)
T1 construct: purified from insect cells as a full-length construct containing a N-terminal 6×-His tag; His6 (N); host or cells: insect cells (baculovirus Sf21)
T1 sequence (Q06187 whole entry): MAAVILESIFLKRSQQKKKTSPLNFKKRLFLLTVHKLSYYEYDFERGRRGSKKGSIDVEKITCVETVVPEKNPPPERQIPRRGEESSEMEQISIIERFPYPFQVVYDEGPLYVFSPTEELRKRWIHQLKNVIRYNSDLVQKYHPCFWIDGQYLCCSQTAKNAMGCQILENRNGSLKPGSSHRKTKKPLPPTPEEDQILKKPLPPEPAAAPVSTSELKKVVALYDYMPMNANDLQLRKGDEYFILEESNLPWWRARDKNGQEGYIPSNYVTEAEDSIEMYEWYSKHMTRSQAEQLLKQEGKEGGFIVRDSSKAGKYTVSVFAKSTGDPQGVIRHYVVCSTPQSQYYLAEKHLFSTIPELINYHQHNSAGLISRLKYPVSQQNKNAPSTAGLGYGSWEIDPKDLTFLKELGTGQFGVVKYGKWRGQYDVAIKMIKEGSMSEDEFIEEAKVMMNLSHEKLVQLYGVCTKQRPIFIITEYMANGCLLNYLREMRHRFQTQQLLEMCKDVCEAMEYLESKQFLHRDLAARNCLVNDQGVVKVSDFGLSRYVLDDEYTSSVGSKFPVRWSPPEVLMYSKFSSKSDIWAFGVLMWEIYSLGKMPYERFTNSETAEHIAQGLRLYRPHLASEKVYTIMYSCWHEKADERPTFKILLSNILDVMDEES
Description: as §1, §2, §3, §4

EGFR = EGFR (Homo sapiens, UniProt P00533); assay: Kinase panel inhibition, EGFR (one of the methods of Example 76a, 76b, 76c)
Sequence of EGFR (P00533 25-1210, species assumed): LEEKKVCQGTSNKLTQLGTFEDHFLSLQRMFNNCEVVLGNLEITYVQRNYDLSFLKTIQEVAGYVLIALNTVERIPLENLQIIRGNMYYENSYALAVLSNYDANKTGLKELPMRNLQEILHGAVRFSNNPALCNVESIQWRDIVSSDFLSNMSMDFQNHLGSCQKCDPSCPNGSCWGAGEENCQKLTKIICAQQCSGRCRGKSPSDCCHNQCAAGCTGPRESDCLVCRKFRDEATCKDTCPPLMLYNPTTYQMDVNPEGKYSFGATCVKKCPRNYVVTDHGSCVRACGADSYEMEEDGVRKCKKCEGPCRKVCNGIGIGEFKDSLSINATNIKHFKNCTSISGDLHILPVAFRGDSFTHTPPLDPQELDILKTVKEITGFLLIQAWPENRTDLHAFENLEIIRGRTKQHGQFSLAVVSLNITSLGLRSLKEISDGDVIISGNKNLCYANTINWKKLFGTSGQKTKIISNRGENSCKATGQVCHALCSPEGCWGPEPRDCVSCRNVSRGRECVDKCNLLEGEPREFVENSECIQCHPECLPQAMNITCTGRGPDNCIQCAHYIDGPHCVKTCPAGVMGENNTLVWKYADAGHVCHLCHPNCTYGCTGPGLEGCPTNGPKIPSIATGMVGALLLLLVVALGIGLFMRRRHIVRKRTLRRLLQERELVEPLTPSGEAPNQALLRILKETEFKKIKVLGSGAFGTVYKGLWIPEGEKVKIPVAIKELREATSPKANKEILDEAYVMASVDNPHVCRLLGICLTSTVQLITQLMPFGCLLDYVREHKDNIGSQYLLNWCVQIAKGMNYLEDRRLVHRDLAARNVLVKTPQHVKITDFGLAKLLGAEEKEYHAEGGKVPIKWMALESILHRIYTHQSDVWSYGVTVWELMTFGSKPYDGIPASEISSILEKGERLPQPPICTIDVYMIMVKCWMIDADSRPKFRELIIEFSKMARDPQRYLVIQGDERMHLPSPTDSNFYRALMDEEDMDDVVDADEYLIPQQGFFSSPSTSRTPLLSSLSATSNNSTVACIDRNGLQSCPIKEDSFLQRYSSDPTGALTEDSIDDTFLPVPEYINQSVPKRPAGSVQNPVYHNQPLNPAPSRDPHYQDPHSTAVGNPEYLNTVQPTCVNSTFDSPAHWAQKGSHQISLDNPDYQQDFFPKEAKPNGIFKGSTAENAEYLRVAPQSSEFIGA
Description: as §1, §2, §3, §4

Sequence of LCK (P06239 whole entry, species assumed): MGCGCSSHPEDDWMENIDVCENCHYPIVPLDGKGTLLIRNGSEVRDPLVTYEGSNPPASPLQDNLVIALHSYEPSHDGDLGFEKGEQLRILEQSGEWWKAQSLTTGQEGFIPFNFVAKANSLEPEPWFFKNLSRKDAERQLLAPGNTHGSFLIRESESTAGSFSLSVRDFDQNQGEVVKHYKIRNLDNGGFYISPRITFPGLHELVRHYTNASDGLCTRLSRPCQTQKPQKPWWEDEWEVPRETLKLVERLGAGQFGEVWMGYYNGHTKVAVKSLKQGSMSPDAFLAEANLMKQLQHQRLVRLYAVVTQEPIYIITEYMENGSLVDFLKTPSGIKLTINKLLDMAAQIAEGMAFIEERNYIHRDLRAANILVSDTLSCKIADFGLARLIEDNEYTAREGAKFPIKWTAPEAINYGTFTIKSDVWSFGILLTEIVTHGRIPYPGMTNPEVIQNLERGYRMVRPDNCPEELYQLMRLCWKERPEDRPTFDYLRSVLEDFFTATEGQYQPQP

Row | IC50 (LCK) | IC50 (BTK) | IC50 (EGFR) | SMILES
1 | < 100 nM | < 100 nM | < 100 nM | CN(C)C/C=C/C(=O)N(C)[C@H]1CC[C@@H](n2c(=O)n(-c3ccc(Oc4ccccc4)cc3)c3c(N)ncnc32)CC1 [Compound 328, (E)-N-((1s,4s)-4-(6-amino-8-oxo-7-(4-phenoxyphenyl)-7H-purin-9(8H)-yl)cyclohexyl)-4-(dimethylamino)-N-methylbut-2-enamide]
2 | 100 to 1000 nM | < 100 nM | < 100 nM | COCCN(C)C/C=C/C(=O)Nc1cccc(-n2c(=O)n(-c3ccc(Oc4ccccc4)cc3)c3c(N)ncnc32)c1 [Compound 318, (E)-N-(3-(6-amino-8-oxo-7-(4-phenoxyphenyl)-7H-purin-9(8H)-yl)phenyl)-4-((2-methoxyethyl)(methyl)amino)but-2-enamide]
3 | 1000 to 10000 nM | < 100 nM | 1000 to 10000 nM | COc1ccc(-n2c(=O)n(-c3ccc(Oc4ccccc4)cc3)c3c(N)ncnc32)cc1N(C)C(=O)/C=C/CN(C)C1CC1 [Compound 171, (E)-N-(5-(6-amino-8-oxo-7-(4-phenoxyphenyl)-7H-purin-9(8H)-yl)-2-methoxyphenyl)-4-(cyclopropyl(methyl)amino)-N-methylbut-2-enamide]
4 | 100 to 1000 nM | < 100 nM | 1000 to 10000 nM | CN(C(=O)/C=C/CN(C)C1CC1)c1ccc(-n2c(=O)n(-c3ccc(Oc4ccccc4)cc3)c3c(N)ncnc32)cc1 [Compound 44, (E)-N-(4-(6-amino-8-oxo-7-(4-phenoxyphenyl)-7H-purin-9(8H)-yl)phenyl)-4-(cyclopropyl(methyl)amino)-N-methylbut-2-enamide]
5 | 1000 to 10000 nM | < 100 nM | 1000 to 10000 nM | CN(C(=O)/C=C/CN(C)[C@H]1CCOC1)c1cccc(-n2c(=O)n(-c3ccc(Oc4cccc(F)c4)cc3)c3c(N)ncnc32)c1 [Compound 309, (S,E)-N-(3-(6-amino-7-(4-(3-fluorophenoxy)phenyl)-8-oxo-7H-purin-9(8H)-yl)phenyl)-N-methyl-4-(methyl(tetrahydrofuran-3-yl)amino)but-2-enamide]
6 | 1000 to 10000 nM | < 100 nM | 100 to 1000 nM | COc1cc(NC(=O)/C=C/CN(C)C2CC2)cc(-n2c(=O)n(-c3ccc(Oc4ccccc4)cc3C)c3c(N)ncnc32)c1 [Compound 301, (E)-N-(3-(6-amino-7-(2-methyl-4-phenoxyphenyl)-8-oxo-7H-purin-9(8H)-yl)-5-methoxyphenyl)-4-(cyclopropyl(methyl)amino)but-2-enamide]
7 | 1000 to 10000 nM | < 100 nM | 1000 to 10000 nM | Cc1ccc(-n2c(=O)n(-c3ccc(Oc4ccccc4)cc3)c3c(N)ncnc32)cc1N(C)C(=O)/C=C/CN(C)C1CC1 [Compound 201, (E)-N-(5-(6-amino-8-oxo-7-(4-phenoxyphenyl)-7H-purin-9(8H)-yl)-2-methylphenyl)-4-(cyclopropyl(methyl)amino)-N-methylbut-2-enamide]
8 | > 10000 nM | < 100 nM | > 10000 nM | COc1cc(-n2c(=O)n(-c3cccc(N(C)C(=O)/C=C/CN(C)C)c3)c3ncnc(N)c32)ccc1C [Compound 30, (E)-N-(3-(6-amino-7-(3-methoxy-4-methylphenyl)-8-oxo-7H-purin-9(8H)-yl)phenyl)-4-(dimethylamino)-N-methylbut-2-enamide]
9 | 100 to 1000 nM | < 100 nM | 100 to 1000 nM | CN(C/C=C/C(=O)Nc1cccc(-n2c(=O)n(-c3ccc(Oc4ccccc4)cc3)c3c(N)ncnc32)c1)[C@H]1CCOC1 [Compound 317, (S,E)-N-(3-(6-amino-8-oxo-7-(4-phenoxyphenyl)-7H-purin-9(8H)-yl)phenyl)-4-(methyl(tetrahydrofuran-3-yl)amino)but-2-enamide]
10 | 1000 to 10000 nM | 100 to 1000 nM | > 10000 nM | CN(C)C/C=C/C(=O)N(C)c1ccc(-n2c(=O)n(-c3ccc(Cl)cc3)c3c(N)ncnc32)cc1 [Compound 48, (E)-N-(4-(6-amino-7-(4-chlorophenyl)-8-oxo-7H-purin-9(8H)-yl)phenyl)-4-(dimethylamino)-N-methylbut-2-enamide]
11 | 100 to 1000 nM | < 100 nM | 1000 to 10000 nM | CN(C)C/C=C/C(=O)N1CCC(Cn2c(=O)n(-c3ccc(Oc4ccccc4)cc3)c3c(N)ncnc32)CC1 [Compound 75, (E)-6-amino-9-((1-(4-(dimethylamino)but-2-enoyl)piperidin-4-yl)methyl)-7-(4-phenoxyphenyl)-7H-purin-8(9H)-one]
12 | 1000 to 10000 nM | < 100 nM | 100 to 1000 nM | CN(C/C=C/C(=O)N1CCOc2ccc(-n3c(=O)n(-c4ccc(Oc5cccc(F)c5)cc4)c4c(N)ncnc43)cc21)C1CC1 [Compound 306, (E)-6-amino-9-(4-(4-(cyclopropyl(methyl)amino)but-2-enoyl)-3,4-dihydro-2H-benzo[b][1,4]oxazin-6-yl)-7-(4-(3-fluorophenoxy)phenyl)-7H-purin-8(9H)-one]
13 | > 10000 nM | 100 to 1000 nM | > 10000 nM | Cc1ccc(N(C)C(=O)/C=C/CN(C)C2CC2)cc1-n1c(=O)n(-c2ccc(Oc3ccccc3)cc2)c2c(N)ncnc21 [Compound 191, (E)-N-(3-(6-amino-8-oxo-7-(4-phenoxyphenyl)-7H-purin-9(8H)-yl)-4-methylphenyl)-4-(cyclopropyl(methyl)amino)-N-methylbut-2-enamide]
14 | 1000 to 10000 nM | 100 to 1000 nM | > 10000 nM | CN(C(=O)/C=C/CN(C)C1CC1)c1ccc(-n2c(=O)n(-c3ccc(Cl)cc3)c3c(N)ncnc32)cc1 [Compound 49, (E)-N-(4-(6-amino-7-(4-chlorophenyl)-8-oxo-7H-purin-9(8H)-yl)phenyl)-4-(cyclopropyl(methyl)amino)-N-methylbut-2-enamide]
15 | 1000 to 10000 nM | 100 to 1000 nM | 1000 to 10000 nM | CN(C(=O)/C=C/c1cn(C)cn1)c1cccc(-n2c(=O)n(-c3ccc(Oc4ccccc4)cc3)c3c(N)ncnc32)c1 [Compound 327, (E)-N-(3-(6-amino-8-oxo-7-(4-phenoxyphenyl)-7H-purin-9(8H)-yl)phenyl)-N-methyl-3-(1-methyl-1H-imidazol-4-yl)acrylamide]
16 | < 100 nM | < 100 nM | < 100 nM | C=CC(=O)Nc1cccc(-n2c(=O)n(-c3ccc(Oc4ccccc4)cc3)c3c(N)ncnc32)c1 [Compound 11, N-(3-(6-amino-8-oxo-7-(4-phenoxyphenyl)-7H-purin-9(8H)-yl)phenyl)acrylamide]
17 | 100 to 1000 nM | < 100 nM | 1000 to 10000 nM | CN(C(=O)/C=C/CN(C)C1CCC1)c1ccc(-n2c(=O)n(-c3ccc(Oc4ccccc4)cc3)c3c(N)ncnc32)cc1 [Compound 45, (E)-N-(4-(6-amino-8-oxo-7-(4-phenoxyphenyl)-7H-purin-9(8H)-yl)phenyl)-4-(cyclobutyl(methyl)amino)-N-methylbut-2-enamide]
18 | 100 to 1000 nM | < 100 nM | < 100 nM | CN(C)C/C=C/C(=O)Nc1cccc(-n2c(=O)n(-c3ccc(Oc4ccccc4)cc3)c3c(N)ncnc32)c1 [Compound 8, (E)-N-(3-(6-amino-8-oxo-7-(4-phenoxyphenyl)-7H-purin-9(8H)-yl)phenyl)-4-(dimethylamino)but-2-enamide]
